Experimental data as given in article PMC9016704, “Dichlorophenylpyridine-Based Molecules Inhibit Furin through an Induced-Fit Mechanism” (ACS Chemical Biology, 2022).
Read-outs that look alike come from different tables or passages of the source. Non-standard residues stand in square brackets, D forms with d. Residues, ends and D or L forms follow the SMILES beside them. *: point of attachment. AMC = Cc1cc(=O)oc2cc(N*)ccc12; pGlu = O=C1CC[C@@H](C(=O)O)N1

Key:
[1] = target: T1, furin (Homo sapiens, UniProt P09958); assay: Enzyme kinetic assay with fluorogenic substrate pERTKR-AMC; assay type: biochemical; parameters: made in house
Description: To determine the inhibition mode for compound 1, we performed enzyme kinetic assays with the fluorogenic PC substrate pyr-ERTKR-7-amino-4-methylcoumarin (pERTKR-AMC).
Additionally, internal calibration was performed using the monoisotopic peak of the respective […]
MALDI-TOF data, processed with flexAnalysis or MALDI Pharma Pulse, were exported as a comma delimited (.csv) file. Datasets were further processed with either GraphPad Prism (v9.00; GraphPad Software, La Jolla, CA) or in-house laboratory information management system (LIMS) software. Furin activity was tracked by analyzing the measured intensity for the enzymatic product as well as for the corresponding internal standard. Average control values were calculated and set to 100% activity (high controls) and 0% activity (low controls) while the response values of compound-containing wells were normalized against the controls and expressed as percentage of control (PoC). Determination of compound potencies was obtained by fitting the dose-response data to a four-parameter logistical equation.
Enzyme kinetics. Enzyme kinetic measurements were performed in 100 mM HEPES pH 7.5, 1 mM CaCl2, 0.01% (w/v) BSA, 0.001% (v/v) Tween20 with the fluorogenic substrate pyr-ERTKR-7-amino-4-methylcoumarin (pERTKR-AMC, Bachem) and 0.5 nM furin at 24°C. The reactions (100 µl) were initiated by addition of the substrate in 96-well black half area plates (Corning), pre-incubated for 30 min at 24°C and measured for 40 min in a 96-well plate reader (Tecan Infinite 200) at excitation and emission wavelengths of 380 nm and 460 nm, respectively. The Km value of pERTKR-AMC with furin was determined with 1:2 serial dilution series of the substrate from 100 µM to 0.78 µM. To investigate the inhibition mode of 1 with furin, 1:2 serial inhibitor dilution series were prepared in the concentration range between 100 nM and 0.78 nM and the reaction velocity was determined in presence of 4.4 µM, 8.9 µM and 13.3 µM pERTKR-AMC. Enzyme kinetic data were evaluated with GraphPad Prism. Km was calculated with the prebuild “Michaelis-Menten” model. […]
Target sequence in this assay (P09958 108-574 limits assumed): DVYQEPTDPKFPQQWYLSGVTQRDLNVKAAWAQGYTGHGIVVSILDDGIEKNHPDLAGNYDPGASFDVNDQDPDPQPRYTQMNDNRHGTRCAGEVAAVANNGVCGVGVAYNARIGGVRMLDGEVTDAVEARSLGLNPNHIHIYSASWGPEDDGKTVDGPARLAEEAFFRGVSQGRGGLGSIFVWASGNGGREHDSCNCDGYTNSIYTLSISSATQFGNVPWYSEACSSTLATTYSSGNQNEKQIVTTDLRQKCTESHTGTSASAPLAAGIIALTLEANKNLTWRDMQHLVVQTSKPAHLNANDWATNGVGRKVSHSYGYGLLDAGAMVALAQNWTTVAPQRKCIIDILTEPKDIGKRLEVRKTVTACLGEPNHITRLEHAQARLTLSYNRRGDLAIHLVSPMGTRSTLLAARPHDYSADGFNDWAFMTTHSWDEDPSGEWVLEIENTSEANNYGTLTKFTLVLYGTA

[2] = tested on: Total TGFβ production in the lung; parameters: method as in earlier work; conditions: cited from earlier work; for Total TGFβ production in the lung reduced by: 10 mg/kg of body weight; for bioavailability: bleomycin-induced lung fibrosis mouse model
[3] = tested on: furin; parameters: method as in earlier work; conditions: enzyme kinetics measurements; cited from earlier work
[4] = target: T1, furin; assay: Protein thermostability measurement by nanoDSF; assay type: binding; parameters: made in house; conditions: for Tm #1 / Tm #2 / Tm Mean: furin-inhibitor complex; for Tm #1: replicate #1; for Tm #2: replicate #2; for Tm Mean: ligand-free furin 57.7 ± 0.1; for ΔTm: gain versus ligand-free furin
Source text: Interactions of inhibitors with furin increased the structural stability of the protease–inhibitor complexes compared with the ligand-free protease, which was indicated by an increase in the melting temperature (Tm).[23] We investigated the impact of the (3,5-dichlorophenyl)pyridine-based compounds on the structural stability of furin using differential scanning fluorimetry (nanoDSF[24]). […] The gain in Tm correlated well with the measured pIC50 (i.e., −log10(IC50)) values (Figure 2B), as reported for substrate-like inhibitors.[10],[25] […]
Protein thermostability measurement by nanoDSF. The thermostablity of furin-inhibitor complexes was further assessed by nanoDSF.16 In nanoDSF, protein unfolding was monitored by the change of the intrinsic fluorescence of the protein, mainly from tryptophan and tyrosine residues in the protein. 10 ul 0.2 mg mL-1 (3.8 µM) protein solutions (10mM Hepes/NaOH pH 7.5; 100 mM NaCl; 2 mM CaCl2) were loaded into nanoDSF grade standard capillaries (NanoTemper Technologies). The samples were heated up with a ramp rate of 1 °C min-1 over a temperature range of 20-95 °C. The thermal unfolding profiles of the proteins were recorded using the Prometheus NT.48 instrument (NanoTemper Technologies). Measurements were performed in duplicate. Unfolding transition temperatures (Tm) were automatically determined by the instrument software.
Target sequence in this assay (P09958 108-574 limits assumed): as above

[5] = target: T1, furin; assay: MALDI-TOF-MS-based furin activity assay, TGFβ-derived substrate; assay type: biochemical; parameters: made in house
Target sequence in this assay (P09958 108-574 limits assumed): as above

[6] = tested on: furin; parameters: method as in earlier work; conditions: cell-based inhibition assays; cited from earlier work
[7] = tested on: furin; parameters: method as in PMID 10958789; conditions: read-out: IC50 (literature); cited from earlier work
[8] = target: T1, furin; assay: biochemical
Target sequence in this assay (P09958 108-794): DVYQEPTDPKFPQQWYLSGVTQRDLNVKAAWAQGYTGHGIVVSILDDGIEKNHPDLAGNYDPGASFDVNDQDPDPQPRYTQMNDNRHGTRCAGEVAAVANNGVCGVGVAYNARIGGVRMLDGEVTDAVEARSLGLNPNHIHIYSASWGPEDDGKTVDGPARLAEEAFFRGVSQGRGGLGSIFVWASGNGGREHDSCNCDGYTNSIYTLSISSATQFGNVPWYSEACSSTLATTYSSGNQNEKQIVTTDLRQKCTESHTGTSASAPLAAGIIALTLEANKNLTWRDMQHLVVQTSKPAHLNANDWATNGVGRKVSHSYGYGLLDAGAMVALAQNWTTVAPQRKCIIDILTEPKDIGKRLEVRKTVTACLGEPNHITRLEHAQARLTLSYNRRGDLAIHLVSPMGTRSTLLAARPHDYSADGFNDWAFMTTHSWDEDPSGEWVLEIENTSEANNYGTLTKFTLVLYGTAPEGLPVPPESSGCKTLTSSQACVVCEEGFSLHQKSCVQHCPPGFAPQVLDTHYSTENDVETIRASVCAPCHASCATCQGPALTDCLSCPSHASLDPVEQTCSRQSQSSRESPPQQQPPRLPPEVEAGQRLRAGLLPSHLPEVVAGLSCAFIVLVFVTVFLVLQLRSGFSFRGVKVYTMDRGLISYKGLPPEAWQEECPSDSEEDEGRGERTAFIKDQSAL

[9] = target: T1, furin; assay: Surface plasmon resonance binding to immobilized furin; conditions: for koff: read-out: koff Mean ± SD; for kon: read-out: kon Mean ± SD; for residence time: reciprocal of the mean koff, read-out: residence time τ
Description: As the (3,5-dichlorophenyl)pyridine derivatives bind tightly to furin, we used single-cycle kinetic experiments to determine their off-rates.[18] […]
SPR-experiments. 1, 3 and hexa-D-Arginine 14 were dissolved to a 10 mM stock solution in DMSO. This stock solution was initially diluted 100-fold in running buffer (10 mM HEPES pH 7.5, 100 mM NaCl, 2 mM CaCl2; 0.05% Tween; 1% DMSO) to a concentration of 100 µM and 1% DMSO. The stock solution in 1% DMSO was then further diluted in running buffer with […]
Furin was immobilized onto a NTA-chip after pre-loading with Ni2+ using standard procedures.
Immobilization levels of furin were in the range of 6000-6500 RU. Binding studies were performed with a Biacore T200 SPR system at 25°C in 10 mM HEPES pH 7.5, 100 mM NaCl, 2 mM CaCl2; 0.05% (v/v) Tween 20, and 1% (v/v) DMSO. Inhibitor 1 and 3 concentrations were […]
and 500 nM. Binding studies for 1 and 3 were performed in the single-cycle kinetic mode using […]
Target sequence in this assay (P09958 108-794): as above

[10] = injected intraperitoneally, mice
[11] = TGFβ-derived substrate 2.5 µM, 0.02 nM furin, read-out: IC50 Mean ± SD
[12] = 25°C, hexa-D-Arg: multicycle, poor curve fit, read-out: KD Mean ± SD
[13] = TGFβ substrate, replicate #1, read-out: IC50 #1
[14] = TGFβ substrate, replicate #2, read-out: IC50 #2
[15] = TGFβ substrate, replicate #3, read-out: IC50 #3

Row | Compound | bioavailability ([2]; in words) | IC50 [3] [nM] | Tm #1 [4] [°C] | Tm #2 [4] [°C] | Tm Mean [4] [°C] | ΔTm [4] [°C] | IC50 [5, 11] [nM] | IC50 [6] [nM] | Kd [9, 12] [nM] | Kd ([9]; replicate #1, read-out: KD #1) [nM] | Kd ([9]; replicate #2, read-out: KD #2) [nM] | Kd ([9]; replicate #3, read-out: KD #3) [nM] | other results
1 | Cc1cc(=O)oc2cc(NC(=O)[C@H](CCCNC(=N)N)NC(=O)[C@H](CCCCN)NC(=O)[C@@H](NC(=O)[C@H](CCCNC(=N)N)NC(=O)[C@@H]3CCC(=O)N3)[C@@H](C)O)ccc12 [pERTKR-AMC, pyr-ERTKR-7-amino-4-methylcoumarin] ([pGlu]RTKR-{AMC}) | – | – | – | – | – | – | – | – | – | – | – | – | Km ([1]; Km of substrate pERTKR-AMC with furin): 9.6 µM
2 | CC(=O)NCC1CCN(Cc2cc(Oc3ccc(N4CCN(CCC(=O)O)CC4)nc3)nc(-c3cc(Cl)cc(Cl)c3)c2)CC1 [Inhibitor 4] | comparably high | 0.25 | 68.3 | 68.2 | 68.3 | 10.5 | 2.6 | 25.1 | – | – | – | – | Total TGFβ production in the lung reduced by [2, 10]: 69%
3 | AQHLQSSRHRRALDTNY [TGFβ, peptide substrate surrogate derived from TGFβ] | – | – | – | – | – | – | – | – | – | – | – | – | Km ([5]; assay-specific apparent Km of the TGFβ-derived peptide substrate, read-out: Km,app): 1.8 µM
4 | CC(=O)NCC1CCN(Cc2cc(Oc3cnc(N4CCN(CCC(C)C(=O)O)CC4)nc3)nc(-c3cc(Cl)cc(Cl)c3)c2)CC1 (centres unmarked) [Inhibitor 2] | comparably high | 0.5 | 69.4 | 69.2 | 69.3 | 11.6 | 1.3 | 5 | – | – | – | – | Total TGFβ production in the lung reduced by ([2]; oral, mice): 75%; oral availability ([2]; mice, in words): orally available
5 | N=C(N)NCCC[C@@H](N)C(=O)N[C@H](CCCNC(=N)N)C(=O)N[C@H](CCCNC(=N)N)C(=O)N[C@H](CCCNC(=N)N)C(=O)N[C@H](CCCNC(=N)N)C(=O)N[C@H](CCCNC(=N)N)C(N)=O [hexa-D-arginine, reference compound] | – | – | 59.3 | 59.2 | 59.3 | 1.6 | – | – | 530 ± 320 | 437 | 966 | 200 | IC50 [7]: 106 nM; IC50 ([8]; IC50 Mean): 126 nM; koff Mean ± SD ([9]; 25°C, single-cycle kinetic): fast off-rate; IC50 ([5]; IC50 #1, TGFβ substrate, replicate #1): 207 nM; IC50 ([5]; IC50 #2, TGFβ substrate, replicate #2): 64.2 nM; IC50 ([5]; IC50 #3, TGFβ substrate, replicate #3): 184 nM; IC50 ([5]; IC50 Mean ± SD, TGFβ-derived substrate 2.5 µM, 0.02 nM furin): 152 ± 77 nM
6 | COCCN1CCN(c2ccc(Oc3cc(CN4CCC(CNC(C)=O)CC4)cc(-c4cc(Cl)cc(Cl)c4)n3)cn2)CC1 [Inhibitor 1] | – | 1.3 | 68.5 | 68.4 | 68.4 | 10.8 | 2.3 | 0.8 | 28 ± 13 | 48.7 | 24.7 | 26.1 | inhibition mode ([1]; Dixon plot, pERTKR-AMC 4.4-13.3 μM): competitive; Ki ([1]; competitive model, pERTKR-AMC 4.4, 8.9 and 13.3 µM, 0.5 nM furin): 3.8 ± 0.8 nM; IC50 ([8]; IC50 #1): 1 nM; IC50 ([8]; IC50 #2): 1.1 nM; koff ([9]; 25°C, single-cycle kinetic): 0.00018 s⁻¹; kon ([9]; 25°C, single-cycle kinetic): 4600 ± 2500 M⁻¹ s⁻¹; residence time [9]: 92 min; kon #1 ([9]; replicate #1): 4531 [Ms]-1; kon #2 ([9]; replicate #2): 3563 [Ms]-1; kon #3 ([9]; replicate #3): 8463 [Ms]-1; IC50 [5, 13]: 2.6 nM; IC50 [5, 14]: 2.4 nM; IC50 [5, 15]: 2 nM
7 | CC(=O)NCC1CCN(Cc2cc(Oc3cnc(N4CCN(CCC(=O)O)CC4)nc3)nc(-c3cc(Cl)cc(Cl)c3)c2)CC1 [Inhibitor 3] | comparably high | 0.16 | 68.7 | 68.5 | 68.6 | 10.9 | 1.8 | 10 | 3.1 ± 1.6 | 2.76 | 5.07 | 1.31 | Total TGFβ production in the lung reduced by [2, 10]: 86%; IC50 ([8]; IC50 #1): 0.5 nM; IC50 ([8]; IC50 #2): 1 nM; IC50 ([8]; IC50 Mean): 0.8 nM; koff ([9]; 25°C, single-cycle kinetic): 0.00031 s⁻¹; kon ([9]; 25°C, single-cycle kinetic): 96000 M⁻¹ s⁻¹; residence time [9]: 53.7 min; IC50 [5, 13]: 2 nM; IC50 [5, 14]: 2.3 nM; IC50 [5, 15]: 1.2 nM
8 | CN1CCN(c2ncc(Oc3cc(CN4CCC(OCC(=O)O)C4)cc(-c4cc(Cl)cc(Cl)c4)n3)cn2)CC1 (centres unmarked) [Inhibitor 5] | – | 13 | 61.8 | 61.8 | 61.8 | 4.0 | 78 | 630 | – | – | – | – | –
